Measurements: patent US20040019026A1, “Compounds useful for treating hypertriglyceridemia” (priority 2000, published 2004)

Experiments:
[1] = test system: patients with Metabolic Syndrome; test: Phase I/II buccal tablet study: triglyceride and HDL levels, incl. obese subset (Examples 7 and 8); assay type: in vivo, human
Description: The study was a phase I/II randomized, double blind, dose-ranging, placebo-controlled, evaluation of the safety, tolerance, and activity on lipid laboratory markers after transmucosal (buccal) administration of two dose levels (20 mg or 80 mg) of fluasterone (16α-fluoro-5-androsten-17-one) compared to placebo in patients with Metabolic Syndrome. Study treatment consisted of eight weeks of buccal tablet administration of fluasterone or placebo control and subsequent follow-up for two weeks.
After patient consent had been obtained, patients were screened for eligibility into the study. Following informed consent, screening and laboratory testing, patients entered a six-week dietary run-in phase during which they followed a Step II AHA diet, and discontinued all lipid-lowering agents. At 4 weeks into the dietary run-in phase, qualifying lipid and endocrine laboratory measurements were performed. After the run-in phase, patients were randomized to receive either fluasterone or placebo control. Patients received fluasterone or placebo daily for 8 weeks. Patients were followed for an additional 2 weeks for total study duration of 16 weeks. The dose levels evaluated in this study were either 20 mg or 80 mg buccal tablets of fluasterone or placebo control that were formulated to dissolve between the lower gingival surfaces of the jaw and buccal mucosa of the cheek pouch.
Fluasterone or placebo equivalent was administered as either one or four buccal tablets. Each buccal tablet contained 16-α-fluoro-5-androsten-17-one, mannitol, crospovidone, magnesium stearate, polyethylene glycol 3350, silica gel and sodium lauryl sulfate. Patients were instructed to ingest water prior to placing the buccal tablets in their mouth. The tablets were held in the mouth without disturbance for approximately 10 minutes. Patients were instructed not to chew or swallow the tablets and not drink or eat for 30 minutes after study drug administration.
The study consisted of a 6-week dietary run-in phase during which they followed a Step II AHA diet and discontinued all lipid-lowering agents. After the run-in phase, patients who qualified based on lipid and endocrine laboratory measurements at the qualifying visit (week −2) were randomized to receive fluasterone or placebo control. Patients received fluasterone or placebo control daily for 8 weeks. Patients were followed for an additional 2 weeks to collect adverse events and an additional lipid profile for total study duration of 16 weeks.
Blood samples were collected for lipid determinations at the qualifying visit (week −2), at study day 1, and at weeks 2, 4, 6, 8, and 10.
There were 8 patients treated with 80 mg fluasterone, 9 with 20 mg fluasterone, 3 patients with 80 mg placebo, and 4 patients with 20 mg placebo.
The triglyceride level in the 80 mg fluasterone group declined from baseline by 34% at week […] and by 35% at week […]. In the combined placebo group at the corresponding time points the triglyceride levels increased by 6% and 7% respectively.

Syndrome X patients = test: Randomized double-blind crossover trial in Syndrome X patients (Example 5c); assay type: in vivo, human; details: 600 mg twice daily, four weeks
Excerpt: Eleven patients were enrolled in the trial. The average age was 50.2±12.8 years, and there were 10 males and 1 patient enrolled. Body weight and body mass index were 87.8±17.9 kg and 27.7±3.0 kg/m^2, respectively. All patients carried a diagnosis of dyslipidemia, including elevated triglycerides, for an average of 11.7±6.4 years.
In this randomized, double-blind, crossover study, the 11 patients underwent eligibility screening (physical exam, medical history, laboratory evaluation, PSA, TSH), followed by a six-week lead-in phase (study weeks 1-6) that included diet (AHA Step II), and discontinuation of lipid-lowering therapy. At week 4, qualifying lipid testing was performed, followed by randomization to study treatment two weeks later. Four-weeks of each of the two study treatments, fluasterone 600 mg twice daily or placebo, were then administered (weeks 7 thru 10 and 15 thru 18), separated by a 4-week washout period. At baseline, and at the end of each treatment period measurement of total serum cholesterol, triglycerides, apolipoprotein A1, and the cholesterol and triglyceride content of VLDL, LDL, and HDL was done.
The baseline triglyceride level (mg/dL) was 509±184 and the baseline HDL level (mg/dL) was 33.0±3.5.

[2] = test system: male BKS.Cg-m+/+Leprdb mice; test: Mortality during treatment of diabetic mice (Example 9); assay type: in vivo
[3] = test system: patients with rheumatoid arthritis; test: Trial in arthritis patients, 1200 mg oral fluasterone daily: HDL levels (Example 5b); assay type: in vivo, human
Description: In this trial patients with rheumatoid arthritis were treated for 3 to 12 weeks with 1200 mg oral fluasterone daily. A placebo group was also included.

[4] = 20 mg buccal daily, Week 2, 4, 6, & 8
[5] = 80 mg buccal daily, Week 2, 4, 6, & 8
[6] = obese subset, 80 mg buccal daily, Week 2, 4, 6, and 8
[7] = obese subset, 80 mg buccal daily, Week 8
[8] = obese subset, 80 mg buccal, Baseline (−2, 0)

With `C[C@]12CCCCC1=CC[C@@H]1[C@@H]2CC[C@]2(C)C(=O)[C@H](F)C[C@@H]12` [fluasterone, 16α-fluoro-5-androsten-17-one] the HDL [1, 4] was 32.6 ± 6.4 (36) mg/dL, the Triglycerides [1, 4] was 523 ± 311 (36) mg/dL and the HDL ([1]; 20 mg buccal daily, Week 8) was 33.3 ± 6.5 (9) mg/dL. The Triglycerides ([1]; 20 mg buccal daily, Week 8) was 538 ± 285 (9) mg/dL, the HDL ([1]; 20 mg buccal, Baseline (−2, 0)) was 31.6 ± 6.2 (18) mg/dL and the Triglycerides ([1]; 20 mg buccal, Baseline (−2, 0)) was 507 ± 192 (18) mg/dL. The HDL [1, 5] was 41.1 ± 8.1 (32) mg/dL, the Triglycerides [1, 5] was 342 ± 111 (32) mg/dL and the HDL ([1]; 80 mg buccal daily, Week 8) was 41.6 ± 9.4 (8) mg/dL. For the same compound, the Triglycerides ([1]; 80 mg buccal daily, Week 8) was 292 ± 92.4 (8) mg/dL, the “Effect on HDL level” value ([1]; 80 mg buccal dose, all patients) was “no apparent decline in HDL level” and the HDL ([1]; 80 mg buccal, Baseline (−2, 0)) was 40.8 ± 8.9 (16) mg/dL. The Triglycerides ([1]; 80 mg buccal, Baseline (−2, 0)) was 455 ± 157 (16) mg/dL, the “Reduction of mean triglyceride level compared to baseline” value ([1]; 80 mg buccal, mean 8-week level) was 36% and the “Reduction of mean triglyceride level compared to baseline” value ([1]; 80 mg buccal, mean of week 2, 4, 6, & 8) was “at least 25%”. The “Effect on HDL levels” value ([1]; obese subset, 80 mg buccal) was “no decline in HDL levels from baseline”, the HDL [1, 6] was 40.3 ± 6.3 (20) mg/dL and the Triglycerides [1, 6] was 313 ± 93.7 (20) mg/dL. For the same compound, the HDL [1, 7] was 40.3 ± 4.6 (5) mg/dL, the Triglycerides [1, 7] was 307 ± 106 (5) mg/dL and the HDL [1, 8] was 39.2 ± 7.3 (10) mg/dL. For the same compound, the Triglycerides [1, 8] was 472 ± 169 (10) mg/dL, the “Decline of triglyceride level from baseline” value ([1]; obese subset, 80 mg buccal, week 2, 4, 6, and 8, p=0.0368 vs combined placebo) was 34% and the “Decline of triglyceride level from baseline” value ([1]; obese subset, 80 mg buccal, week 8) was 35%. The “Change in HDL levels, least square means±S.E.M.” value (Syndrome X patients; baseline 33.0±3.5 mg/dL, p=0.068 vs placebo) was −5.8±4.1, the “Change in triglyceride levels, least square means±S.E.M.” value (Syndrome X patients; baseline 509±184 mg/dL, p<0.005 vs placebo) was −165±76 and the “Mortality (mice died)” value ([2]; 5 mg/kg, i.p. group, about two weeks later) was 1 mouse. The “Mortality (mice died)” value ([2]; 200 mg/kg oral group, about 17 days later) was 1 mouse, the “HDL Levels” value ([3]; Combined (20), pretreatment) was 57.4 ± 14.7 and the “HDL Levels” value ([3]; Combined, treatment 1200 mg oral daily, 3 to 12 weeks, p < 0.02) was 46.9 ± 8.9. The “HDL Levels” value ([3]; Females (16), pretreatment) was 59.8 ± 14.6 (16), the “HDL Levels” value ([3]; Females, treatment 1200 mg oral daily, 3 to 12 weeks, p < 0.01) was 46.8 ± 9.6 and the “HDL Levels” value ([3]; Males (4), pretreatment) was 47.0 ± 9.1 (4). For the same compound, the “HDL Levels” value ([3]; Males (4), treatment 1200 mg oral daily, 3 to 12 weeks) was 47.0 ± 5.8 (4).
